Measurements: patent US8957093B2, “N-biphenylmethylindole modulators of PPARG” (The Scripps Research Institute, priority 2011, dated 2015)
Read-outs that look alike come from different tables or passages of the source.

Legend:
GST-PPARG-LBD = GST-PPARG-LBD (Homo sapiens (Human), UniProt P37231); assay: Lanthascreen PPARG competitive binding assay (Invitrogen, TR-FRET); conditions: inc = incomplete curve, NA = not active, read-out: IC50 (nM) Lantha
Summary of the method: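 TR-FRET competitive binding of GST-PPARG-LBD with 5 nM Tb-GST-antibody and 5 nM Fluormone Pan-PPAR Green tracer, in TR-FRET buffer C. Compound serially diluted from 10 μM, 2 h dark incubation, in triplicate. Readout is 520/490 nm emission ratio (340 nm excitation), expressed as fold change over 2% DMSO control.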

[1] = biological target: Gal-4-PPAR (human PPAR LBD fused to GAL4 DNA-binding domain) (Homo sapiens (Human), UniProt P37231); assay: GAL4-PPARG LBD / UAS-luciferase transactivation assay in HEK 293T cells; format: cell-based
Gal-4-PPAR (human PPAR LBD fused to GAL4 DNA-binding domain), sequence (P37231 238-503): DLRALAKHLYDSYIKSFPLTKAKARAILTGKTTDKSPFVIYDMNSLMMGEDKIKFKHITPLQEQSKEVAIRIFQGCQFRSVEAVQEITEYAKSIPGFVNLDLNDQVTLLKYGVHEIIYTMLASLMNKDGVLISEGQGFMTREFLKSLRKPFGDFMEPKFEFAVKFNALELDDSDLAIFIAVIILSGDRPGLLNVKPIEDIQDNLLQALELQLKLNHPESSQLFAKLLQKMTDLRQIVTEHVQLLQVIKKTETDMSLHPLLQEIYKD

[2] = Lanthascreen PPARG competitive binding
[3] = GAL4 transactivation; read-out: EC50 (nM) GAL4
[4] = HEK-293T, 18 h; read-out: % transactivation at 10 μM (GAL4)
[5] = Lanthascreen competitive binding
[6] = GAL4 transactivation, HEK 293T cells; NA = not active; read-out: EC50 (nM) GAL4
[7] = HEK-293T, 18 h, read-out: % transactivation at 10 μM (GAL4)

GST-PPARG-LBD, sequence (P37231 238-503): as above

| EC50 [1, 6] [nM] | activation at 10 µM [1, 7] [%] | Structure (SMILES) | IC50 (GST-PPARG-LBD; [2]) [nM] | EC50 [1, 3] [nM] | activation at 10 µM [1, 4] [%] | IC50 (GST-PPARG-LBD; [5]) [nM] | EC50 [1] [nM] |
| --- | --- | --- | --- | --- | --- | --- | --- |
|  |  | Cc1c(C)n(Cc2ccc(-c3ccccc3C(=O)O)cc2)c2ccc(C(=O)N[C@@H](C)c3cccc(C4CC4)n3)cc12 [Example 274, (S)-4′-((5-(1-(6-cyclopropylpyridin-2-yl)ethylcarbamoyl)-2,3-dimethyl-1H-indol-1-yl)methyl)biphenyl-2-carboxylic acid] | 19 | 159 | 30 |  |  |
| 618 | 25 | CCOc1cccc([C@H](C)NC(=O)c2ccc3c(c2)c(C)c(C)n3Cc2ccc(-c3ccccc3C(=O)O)cc2)c1 [Example 151, (S)-4′-((5-((1-(3-ethoxyphenyl)ethyl)carbamoyl)-2,3-dimethyl-1H-indol-1-yl)methyl)-[1,1′-biphenyl]-2-carboxylic acid] |  |  |  | 21 |  |
| 507 |  | Cc1c(C)n(Cc2ccc(-c3ccccc3C(=O)O)cc2)c2ccc(C(=O)NCc3ccc(Cl)cc3C(F)(F)F)cc12 [Example 165, 4′-((5-((4-chloro-2-(trifluoromethyl)benzyl)carbamoyl)-2,3-dimethyl-1H-indol-1-yl)methyl)-[1,1′-biphenyl]-2-carboxylic acid] |  |  | 15 | 2 |  |
| 608 |  | Cc1c(C)n(Cc2ccc(-c3ccccc3C(=O)O)cc2)c2ccc(C(=O)N[C@H](C)c3ccncc3)cc12 [Example 169, (R)-4′-((2,3-dimethyl-5-((1-(pyridin-4-yl)ethyl)carbamoyl)-1H-indol-1-yl)methyl)-[1,1′-biphenyl]-2-carboxylic acid] |  |  | 20 | 11 |  |
| 119 | 60 | Cc1c(C)n(Cc2ccc(-c3ccccc3C(=O)O)cc2)c2ccc(C(=O)NC(C)(C)c3ccc(Br)cc3)cc12 [Example 180, 4′-((5-((2-(4-bromophenyl)propan-2-yl)carbamoyl)-2,3-dimethyl-1H-indol-1-yl)methyl)-[1,1′-biphenyl]-2-carboxylic acid] |  |  |  | 1 |  |
| 189 |  | Cc1c(C)n(Cc2ccc(-c3ccccc3C(=O)O)cc2)c2ccc(C(=O)N[C@@H](C)c3cccc4c3OCO4)cc12 [Example 143, (S)-4′-((5-((1-(benzo[d][1,3]dioxol-4-yl)ethyl)carbamoyl)-2,3-dimethyl-1H-indol-1-yl)methyl)-[1,1′-biphenyl]-2-carboxylic acid] |  |  | 45 | 10 |  |
|  |  | Cc1c(C)n(Cc2ccc(-c3ccccc3C(=O)O)cc2)c2ccc(C(=O)NC(C)c3cncc(Br)c3)cc12 (stereo not drawn) [Example 275, 4′-((5-(1-(5-bromopyridin-3-yl)ethylcarbamoyl)-2,3-dimethyl-1H-indol-1-yl)methyl)biphenyl-2-carboxylic acid] | 8 | 572 | 35 |  |  |
|  |  | Cc1c(C)n(Cc2ccc(-c3ccccc3C(=O)O)cc2)c2ccc(C(=O)N[C@@H](C)c3ccc(Cl)cc3Cl)cc12 [Example 303, (S)-4′-((5-((1-(2,4-Dichlorophenyl)ethyl)carbamoyl)-2,3-dimethyl-1H-indol-1-yl)methyl)-[1,1′-biphenyl]-2-carboxylic acid] | 4 | 219 | 25 |  |  |
| 529 |  | Cc1c(C)n(Cc2ccc(-c3ccccc3C(=O)O)cc2)c2ccc(C(=O)N[C@H](C)c3c(Cl)cccc3Cl)cc12 [Example 141, (R)-4′-((5-((1-(2,6-dichlorophenyl)ethyl)carbamoyl)-2,3-dimethyl-1H-indol-1-yl)methyl)-[1,1′-biphenyl]-2-carboxylic acid] |  |  | 20 | 30 |  |
|  |  | Cc1c(C)n(Cc2ccc(-c3ccccc3-c3noc(=O)[nH]3)cc2)c2ccc(C(=O)N[C@@H](C)c3cccc(C(C)C)c3)cc12 [Example 244, (S)—N-(1-(3-isopropylphenyl)ethyl)-2,3-dimethyl-1-((2′-(5-oxo-4,5-dihydro-1,2,4-oxadiazol-3-yl)-[1,1′-biphenyl]-4-yl)methyl)-1H-indole-5-carboxamide] |  |  | 8 | 40 | 921 |
|  |  | Cc1c(C)n(Cc2ccc(-c3ccccc3-c3nn[nH]n3)cc2)c2ccc(C(=O)N[C@@H](C)c3cccc(C(C)C)c3)cc12 [Example 243, (S)-1-((2′-(2H-tetrazol-5-yl)-[1,1′-biphenyl]-4-yl)methyl)-N-(1-(3-isopropylphenyl)ethyl)-2,3-dimethyl-1H-indole-5-carboxamide] |  |  | 10 | 22 | 1600 |
| 40 |  | Cc1c(C)n(Cc2ccc(-c3ccccc3C(=O)O)cc2)c2ccc(C(=O)N[C@H](C)c3ccc(C(F)(F)F)c(F)c3)cc12 [Example 234, (R)-4′-((5-((1-(3-fluoro-4-(trifluoromethyl)phenyl)ethyl)carbamoyl)-2,3-dimethyl-1H-indol-1-yl)methyl)-[1,1′-biphenyl]-2-carboxylic acid] |  |  | 50 | < 1 |  |
| 152 | 30 | Cc1c(C)n(Cc2ccc(-c3ccccc3C(=O)O)cc2)c2ccc(C(=O)N[C@@H](C)c3ccccc3Cl)cc12 [Example 159, (S)-4′-((5-((1-(2-chlorophenyl)ethyl)carbamoyl)-2,3-dimethyl-1H-indol-1-yl)methyl)-[1,1′-biphenyl]-2-carboxylic acid] |  |  |  | < 1 |  |
| 259 | 40 | Cc1c(C)n(Cc2ccc(-c3ccccc3C(=O)O)cc2)c2ccc(C(=O)N[C@@H](C)c3cccc(F)c3)cc12 [Example 158, (S)-4′-((5-((1-(3-fluorophenyl)ethyl)carbamoyl)-2,3-dimethyl-1H-indol-1-yl)methyl)-[1,1′-biphenyl]-2-carboxylic acid] |  |  |  | 8 |  |
|  |  | Cc1c(C)n(Cc2ccc(-c3ccccc3C(=O)O)cc2)c2ccc(C(=O)N[C@@H](C)c3cccc(C(F)(F)F)c3F)cc12 [Example 299, (S)-4′-((5-((1-(2-Fluoro-3-(trifluoromethyl)phenyl)ethyl)carbamoyl)-2,3-dimethyl-1H-indol-1-yl)methyl)-[1,1′-biphenyl]-2-carboxylic acid] | 27 | 346 | 15 |  |  |
|  |  | Cc1c(C)n(Cc2ccc(-c3ccccc3C(=O)NS(C)(=O)=O)cc2)c2ccc(C(=O)N[C@@H](C)c3cccc(C(C)C)c3)cc12 [Example 314, (S)—N-(1-(3-Isopropylphenyl)ethyl)-2,3-dimethyl-1-((2′-((methylsulfonyl)carbamoyl)-[1,1′-biphenyl]-4-yl)methyl)-1H-indole-5-carboxamide] | 285 | 1650 | 5 |  |  |

| Structure (SMILES) | EC50 [1, 6] [nM] | activation at 10 µM [1, 7] [%] | IC50 (GST-PPARG-LBD; [2]) [nM] | EC50 [1, 3] [nM] | activation at 10 µM [1, 4] [%] | IC50 (GST-PPARG-LBD; [5]) [nM] | EC50 [1] [nM] |
| --- | --- | --- | --- | --- | --- | --- | --- |
| Cc1c(C)n(Cc2ccc(-c3ccccc3C(=O)O)cc2)c2ccc(C(=O)N[C@@H](C)c3cc(Cl)cc(Cl)c3)cc12 [Example 219, (S)-4′-((5-((1-(3,5-dichlorophenyl)ethyl)carbamoyl)-2,3-dimethyl-1H-indol-1-yl)methyl)-[1,1′-biphenyl]-2-carboxylic acid] | 155 |  |  |  | 30 | 15 |  |
| CCCc1ccc([C@H](C)NC(=O)c2ccc3c(c2)c(C)c(C)n3Cc2ccc(-c3ccccc3C(=O)O)cc2)cc1 [Example 251, (S)-4′-((2,3-dimethyl-5-(1-(4-propylphenyl)ethylcarbamoyl)-1H-indol-1-yl)methyl)biphenyl-2-carboxylic acid] | 1610 |  |  |  | 30 | 40 |  |
| Cc1c(C)n(Cc2ccc(-c3ccccc3-c3nnn[nH]3)cc2)c2ccc(C(=O)N[C@H](C)c3cccc(Br)c3)cc12 [Example 187, (R)-1-((2′-(1H-tetrazol-5-yl)-[1,1′-biphenyl]-4-yl)methyl)-N-(1-(3-bromophenyl)ethyl)-2,3-dimethyl-1H-indole-5-carboxamide] | 5 |  |  |  | 20 | < 1 |  |
| COc1cc(C(F)(F)F)ccc1[C@H](C)NC(=O)c1ccc2c(c1)c(C)c(C)n2Cc1ccc(-c2ccccc2C(=O)O)cc1 [Example 223, (S)-4′-((5-((1-(2-methoxy-4-(trifluoromethyl)phenyl)ethyl)carbamoyl)-2,3-dimethyl-1H-indol-1-yl)methyl)-[1,1′-biphenyl]-2-carboxylic acid] | 676 |  |  |  | 10 | 73 |  |
| Cc1c(C)n(Cc2ccc(-c3ccccc3C(=O)O)cc2)c2ccc(C(=O)N[C@@H](C)c3ccc(C(F)(F)F)nc3)cc12 [Example 217, (S)-4′-((2,3-dimethyl-5-((1-(6-(trifluoromethyl)pyridin-3-yl)ethyl)carbamoyl)-1H-indol-1-yl)methyl)-[1,1′-biphenyl]-2-carboxylic acid] | 2800 |  |  |  | 15 | 230 |  |
| Cc1c(C)n(Cc2ccc(-c3ccccc3C(=O)O)cc2)c2ccc(C(=O)N[C@@H](C)C3CCCCC3)cc12 [Example 212, (S)-4′-((5-((1-cyclohexylethyl)carbamoyl)-2,3-dimethyl-1H-indol-1-yl)methyl)-[1,1′-biphenyl]-2-carboxylic acid] | 209 |  |  |  | 20 | 4 |  |
| COc1cc(C(F)(F)F)ccc1[C@@H](C)NC(=O)c1ccc2c(c1)c(C)c(C)n2Cc1ccc(-c2ccccc2C(=O)O)cc1 [Example 224, (R)-4′-((5-((1-(2-methoxy-4-(trifluoromethyl)phenyl)ethyl)carbamoyl)-2,3-dimethyl-1H-indol-1-yl)methyl)-[1,1′-biphenyl]-2-carboxylic acid] | 86 |  |  |  | 20 | 2 |  |
